Data taken from the supplement of paper PMC10307832.

Legend:
Assay in all cases: relative viability (nuclei count vs DMSO), 5 days (fraction); higher = more cells survive
[1] = compound: Cn1cc(-c2cnn3c(N)c(Br)c([C@@H]4CCCNC4)nc23)cn1
Method in brief: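 Following overnight incubation at 37 °C, lung cancer cell lines in 1536-well plates were pinned with five library-drug doses (not always all listed) in √10 steps on vehicle-anchored plates. The cells then spent 5 days without medium change before a combined fix, permeabilisation and Hoechst stain, 4× imaging and MetaXpress nuclear counts. Viability is the treated-to-vehicle ratio of nuclei, taken as the median across plates. Only plates with control CV below 25% and at least one doubling passed.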

[2] = compound: Cn1cc(-c2cnn3c(N)c(Br)c([C@@H]4CCCNC4)nc23)cn1 + CC(C)C[C@H](NC(=O)[C@H](Cc1ccccc1)NC(=O)c1cnccn1)B(O)O [Bortezomib] (partner 0.002 µM)
Method in brief: (§1)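 Lung cancer cell lines in 1536-well plates got either a single drug or a fixed anchor-drug dose together with five library-drug doses (not always all listed) in √10 steps, by pin tool, on the day after seeding. Nuclei were counted after 5 days, and relative viability is the treated-to-vehicle ratio of nuclei counts. Values are medians of duplicate plates.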

[3] = compound: Cn1cc(-c2cnn3c(N)c(Br)c([C@@H]4CCCNC4)nc23)cn1 + CC1(C)CCC(c2ccc(Cl)cc2)=C(CN2CCN(c3ccc(C(=O)NS(=O)(=O)c4ccc(N[C@H](CCN5CCOCC5)CSc5ccccc5)c(S(=O)(=O)C(F)(F)F)c4)cc3)CC2)C1 [Navitoclax] (partner 0.5 µM)
Method in brief: as §1

[4] = compound: Cn1cc(-c2cnn3c(N)c(Br)c([C@@H]4CCCNC4)nc23)cn1 + COc1cc2c(Oc3ccc(NC(=O)C4(C(=O)Nc5ccc(F)cc5)CC4)cc3F)ccnc2cc1OCCCN1CCOCC1 [Foretinib] (partner 0.25 µM)
Method in brief: as §1

[5] = compound: Cn1cc(-c2cnn3c(N)c(Br)c([C@@H]4CCCNC4)nc23)cn1 + CS(=O)(=O)CCNCc1ccc(-c2ccc3ncnc(Nc4ccc(OCc5cccc(F)c5)c(Cl)c4)c3c2)o1 [Lapatinib] (partner 2 µM)
Method in brief: as §1

[6] = compound: Cn1cc(-c2cnn3c(N)c(Br)c([C@@H]4CCCNC4)nc23)cn1 + CS(=O)(=O)N1CCN(Cc2cc3nc(-c4cccc5[nH]ncc45)nc(N4CCOCC4)c3s2)CC1 [Pictilisib] (partner 1 µM)
Method in brief: as §1

[7] = compound: Cn1cc(-c2cnn3c(N)c(Br)c([C@@H]4CCCNC4)nc23)cn1 + C[C@@H](Oc1cc(-c2cnn(C3CCNCC3)c2)cnc1N)c1c(Cl)ccc(F)c1Cl [Crizotinib] (partner 1 µM)
Method in brief: as §1

[8] = compound: Cn1cc(-c2cnn3c(N)c(Br)c([C@@H]4CCCNC4)nc23)cn1 + C[C@]1(O)C[C@@H](c2nc(-c3ccc4ccc(-c5ccccc5)nc4c3)c3c(N)nccn32)C1 [Linsitinib] (partner 1 µM)
Method in brief: as §1

[9] = compound: Cn1cc(-c2cnn3c(N)c(Br)c([C@@H]4CCCNC4)nc23)cn1 + Cc1nc(NC(=O)N2CCC[C@H]2C(N)=O)sc1-c1ccnc(C(C)(C)C(F)(F)F)c1 [Alpelisib] (partner 2 µM)
Method in brief: as §1

[10] = compound: Cn1cc(-c2cnn3c(N)c(Br)c([C@@H]4CCCNC4)nc23)cn1 + O=C(c1cc(Cc2n[nH]c(=O)c3ccccc23)ccc1F)N1CCN(C(=O)C2CC2)CC1 [Olaparib] (partner 8 µM)
Method in brief: as §1

[11] = compound: Cn1cc(-c2cnn3c(N)c(Br)c([C@@H]4CCCNC4)nc23)cn1 + CCNC(=O)c1noc(-c2cc(C(C)C)c(O)cc2O)c1-c1ccc(CN2CCOCC2)cc1 [Luminespib] (partner 0.01 µM)
Method in brief: as §1

[12] = compound: Cn1cc(-c2cnn3c(N)c(Br)c([C@@H]4CCCNC4)nc23)cn1 + COc1cccc2cc(-c3nc([C@H]4CC[C@H](C(=O)O)CC4)n4ncnc(N)c34)[nH]c12 [OSI-027] (partner 0.5 µM)
Method in brief: as §1

[13] = compound: Cn1cc(-c2cnn3c(N)c(Br)c([C@@H]4CCCNC4)nc23)cn1 + Cc1cc(Nc2cc(N3CCN(C)CC3)nc(Sc3ccc(NC(=O)C4CC4)cc3)n2)n[nH]1 [Tozasertib] (partner 0.1 µM)
Method in brief: as §1

[14] = compound: Cn1cc(-c2cnn3c(N)c(Br)c([C@@H]4CCCNC4)nc23)cn1 + Cc1nc(Nc2ncc(C(=O)Nc3c(C)cccc3Cl)s2)cc(N2CCN(CCO)CC2)n1 [Dasatinib] (partner 0.075 µM)
Method in brief: as §1

[15] = compound: Cn1cc(-c2cnn3c(N)c(Br)c([C@@H]4CCCNC4)nc23)cn1 + N=C(N)NC(=N)NCCc1ccccc1 [Phenformin] (partner 250 µM)
Method in brief: as §1

## Calu-6
[1]; 0.05 µM
  relative viability: 1.06
[1]; 0.1581 µM
  relative viability: 0.905
[1]; 0.5 µM
  relative viability: 0.828
[1]; 1.581 µM
  relative viability: 0.438
[1]; 5 µM
  relative viability: 0.219
[2]; first compound 0.05 µM
  relative viability: 1.17
[2]; first compound 0.1581 µM
  relative viability: 0.733
[2]; first compound 0.5 µM
  relative viability: 0.685
[2]; first compound 1.581 µM
  relative viability: 0.363
[2]; first compound 5 µM
  relative viability: 0.188
[3]; first compound 0.05 µM
  relative viability: 0.997
[3]; first compound 0.1581 µM
  relative viability: 0.597
[3]; first compound 0.5 µM
  relative viability: 0.68
[3]; first compound 1.581 µM
  relative viability: 0.211
[3]; first compound 5 µM
  relative viability: 0.146
[4]; first compound 0.05 µM
  relative viability: 0.879
[4]; first compound 0.1581 µM
  relative viability: 0.876
[4]; first compound 0.5 µM
  relative viability: 0.758
[4]; first compound 1.581 µM
  relative viability: 0.319
[4]; first compound 5 µM
  relative viability: 0.134
[5]; first compound 0.05 µM
  relative viability: 1.2
[5]; first compound 0.1581 µM
  relative viability: 0.745
[5]; first compound 0.5 µM
  relative viability: 0.678
[5]; first compound 1.581 µM
  relative viability: 0.329
[5]; first compound 5 µM
  relative viability: 0.193
[6]; first compound 0.05 µM
  relative viability: 0.935
[6]; first compound 0.1581 µM
  relative viability: 0.605
[6]; first compound 0.5 µM
  relative viability: 0.419
[6]; first compound 1.581 µM
  relative viability: 0.212
[6]; first compound 5 µM
  relative viability: 0.194
[7]; first compound 0.05 µM
  relative viability: 0.964
[7]; first compound 0.1581 µM
  relative viability: 0.643
[7]; first compound 0.5 µM
  relative viability: 0.603
[7]; first compound 1.581 µM
  relative viability: 0.253
[7]; first compound 5 µM
  relative viability: 0.167
[8]; first compound 0.05 µM
  relative viability: 0.898
[8]; first compound 0.1581 µM
  relative viability: 1.1
[8]; first compound 0.5 µM
  relative viability: 0.945
[8]; first compound 1.581 µM
  relative viability: 0.52
[8]; first compound 5 µM
  relative viability: 0.176
[9]; first compound 0.05 µM
  relative viability: 0.98
[9]; first compound 0.1581 µM
  relative viability: 0.82
[9]; first compound 0.5 µM
  relative viability: 0.883
[9]; first compound 1.581 µM
  relative viability: 0.379
[9]; first compound 5 µM
  relative viability: 0.182
[10]; first compound 0.05 µM
  relative viability: 0.604
[10]; first compound 0.1581 µM
  relative viability: 0.521
[10]; first compound 0.5 µM
  relative viability: 0.481
[10]; first compound 1.581 µM
  relative viability: 0.251
[10]; first compound 5 µM
  relative viability: 0.168

## NCI-H1623
[1]; 0.05 µM
  relative viability: 0.984
[1]; 0.1581 µM
  relative viability: 0.9
[1]; 0.5 µM
  relative viability: 1.04
[1]; 1.581 µM
  relative viability: 0.942
[1]; 5 µM
  relative viability: 0.755
[11]; first compound 0.05 µM
  relative viability: 0.41
[11]; first compound 0.1581 µM
  relative viability: 0.399
[11]; first compound 0.5 µM
  relative viability: 0.538
[11]; first compound 1.581 µM
  relative viability: 0.851
[11]; first compound 5 µM
  relative viability: 0.322
[4]; first compound 0.05 µM
  relative viability: 0.811
[4]; first compound 0.1581 µM
  relative viability: 0.831
[4]; first compound 0.5 µM
  relative viability: 0.97
[4]; first compound 1.581 µM
  relative viability: 0.844
[4]; first compound 5 µM
  relative viability: 0.606
[12]; first compound 0.05 µM
  relative viability: 0.426
[12]; first compound 0.1581 µM
  relative viability: 0.456
[12]; first compound 0.5 µM
  relative viability: 0.407
[12]; first compound 1.581 µM
  relative viability: 0.418
[12]; first compound 5 µM
  relative viability: 0.382
[13]; first compound 0.05 µM
  relative viability: 0.425
[13]; first compound 0.1581 µM
  relative viability: 0.421
[13]; first compound 0.5 µM
  relative viability: 0.467
[13]; first compound 1.581 µM
  relative viability: 0.41
[13]; first compound 5 µM
  relative viability: 0.38
[14]; first compound 0.05 µM
  relative viability: 0.475
[14]; first compound 0.1581 µM
  relative viability: 0.474
[14]; first compound 0.5 µM
  relative viability: 0.536
[14]; first compound 1.581 µM
  relative viability: 0.477
[14]; first compound 5 µM
  relative viability: 0.399
[15]; first compound 0.05 µM
  relative viability: 0.561
[15]; first compound 0.1581 µM
  relative viability: 0.628
[15]; first compound 0.5 µM
  relative viability: 0.632
[15]; first compound 1.581 µM
  relative viability: 0.567
[15]; first compound 5 µM
  relative viability: 0.432
